In the NIST ThermoML archive (doi:10.1021/je500275j):

Assay: xn = mol fraction of the nth substance listed
Settings: 100 kPa, Liquid; for viscosity: Falling or rolling sphere viscometry; for mass density: Vibrating tube method

C1CCC(C2CCCCC2)CC1 [1,1'-bicyclohexyl] + CCCCC1CCCCC1
Settings	mass density [kg/m3]	viscosity [mPa·s]
293.15 K, x1 = 0.1002	809.11	1.43
293.15 K, x1 = 0.2003	818.37	1.585
293.15 K, x1 = 0.2997	827.41	1.757
293.15 K, x1 = 0.4002	836.41	1.952
293.15 K, x1 = 0.4999	845.11	2.184
293.15 K, x1 = 0.6011	853.76	2.45
293.15 K, x1 = 0.7003	862.14	2.759
293.15 K, x1 = 0.7999	870.34	3.132
293.15 K, x1 = 0.9008	878.53	3.563
293.15 K, x1 = 1	886.39	4.017
298.15 K, x1 = 0.1002	805.38	1.311
298.15 K, x1 = 0.2003	814.66	1.449
298.15 K, x1 = 0.2997	823.71	1.6
298.15 K, x1 = 0.4002	832.69	1.772
298.15 K, x1 = 0.4999	841.44	1.975
298.15 K, x1 = 0.6011	850.11	2.205
298.15 K, x1 = 0.7003	858.51	2.471
298.15 K, x1 = 0.7999	866.72	2.797
298.15 K, x1 = 0.9008	874.92	3.15
298.15 K, x1 = 1	882.79	3.541
303.15 K, x1 = 0.1002	801.64	1.209
303.15 K, x1 = 0.2003	810.94	1.332
303.15 K, x1 = 0.2997	820.01	1.466
303.15 K, x1 = 0.4002	829.01	1.619
303.15 K, x1 = 0.4999	837.77	1.796
303.15 K, x1 = 0.6011	846.46	1.998
303.15 K, x1 = 0.7003	854.87	2.231
303.15 K, x1 = 0.7999	863.09	2.508
303.15 K, x1 = 0.9008	871.31	2.812
303.15 K, x1 = 1	879.19	3.145
308.15 K, x1 = 0.1002	797.9	1.12
308.15 K, x1 = 0.2003	807.21	1.229
308.15 K, x1 = 0.2997	816.31	1.349
308.15 K, x1 = 0.4002	825.32	1.485
308.15 K, x1 = 0.4999	834.1	1.643
308.15 K, x1 = 0.6011	842.81	1.821
308.15 K, x1 = 0.7003	851.24	2.022
308.15 K, x1 = 0.7999	859.47	2.272
308.15 K, x1 = 0.9008	867.7	2.53
308.15 K, x1 = 1	875.6	2.817
313.15 K, x1 = 0.1002	794.15	1.041
313.15 K, x1 = 0.2003	803.48	1.139
313.15 K, x1 = 0.2997	812.6	1.247
313.15 K, x1 = 0.4002	821.64	1.368
313.15 K, x1 = 0.4999	830.43	1.508
313.15 K, x1 = 0.6011	839.15	1.665
313.15 K, x1 = 0.7003	847.6	1.844
313.15 K, x1 = 0.7999	855.85	2.061
313.15 K, x1 = 0.9008	864.1	2.288
313.15 K, x1 = 1	872.01	2.54
318.15 K, x1 = 0.1002	790.39	0.971
318.15 K, x1 = 0.2003	799.75	1.059
318.15 K, x1 = 0.2997	808.89	1.157
318.15 K, x1 = 0.4002	817.94	1.265
318.15 K, x1 = 0.4999	826.76	1.391
318.15 K, x1 = 0.6011	835.5	1.532
318.15 K, x1 = 0.7003	843.97	1.689
318.15 K, x1 = 0.7999	852.23	1.883
318.15 K, x1 = 0.9008	860.5	2.082
318.15 K, x1 = 1	868.43	2.302

C1CCC(C2CCCCC2)CC1 [1,1'-bicyclohexyl] + CC1CCCCC1
Settings	mass density [kg/m3]	viscosity [mPa·s]
293.15 K, x1 = 0.0999	786.65	0.882
293.15 K, x1 = 0.2015	802.4	1.053
293.15 K, x1 = 0.3012	816.38	1.269
293.15 K, x1 = 0.4007	828.96	1.513
293.15 K, x1 = 0.4994	840.4	1.77
293.15 K, x1 = 0.5986	850.98	2.12
293.15 K, x1 = 0.7002	861.06	2.507
293.15 K, x1 = 0.7998	870.05	2.935
293.15 K, x1 = 0.8998	878.51	3.428
293.15 K, x1 = 1	886.39	4.017
298.15 K, x1 = 0.0999	782.49	0.821
298.15 K, x1 = 0.2015	798.27	0.977
298.15 K, x1 = 0.3012	812.39	1.173
298.15 K, x1 = 0.4007	825.06	1.389
298.15 K, x1 = 0.4994	836.55	1.616
298.15 K, x1 = 0.5986	847.21	1.923
298.15 K, x1 = 0.7002	857.36	2.261
298.15 K, x1 = 0.7998	866.41	2.628
298.15 K, x1 = 0.8998	874.87	3.05
298.15 K, x1 = 1	882.79	3.541
303.15 K, x1 = 0.0999	778.28	0.768
303.15 K, x1 = 0.2015	794.17	0.905
303.15 K, x1 = 0.3012	808.39	1.086
303.15 K, x1 = 0.4007	821.14	1.28
303.15 K, x1 = 0.4994	832.74	1.49
303.15 K, x1 = 0.5986	843.46	1.754
303.15 K, x1 = 0.7002	853.63	2.056
303.15 K, x1 = 0.7998	862.73	2.367
303.15 K, x1 = 0.8998	871.23	2.73
303.15 K, x1 = 1	879.19	3.145
308.15 K, x1 = 0.0999	774.06	0.722
308.15 K, x1 = 0.2015	790.07	0.85
308.15 K, x1 = 0.3012	804.38	1.01
308.15 K, x1 = 0.4007	817.21	1.185
308.15 K, x1 = 0.4994	828.85	1.373
308.15 K, x1 = 0.5986	839.63	1.609
308.15 K, x1 = 0.7002	849.8	1.871
308.15 K, x1 = 0.7998	859.05	2.143
308.15 K, x1 = 0.8998	867.6	2.459
308.15 K, x1 = 1	875.6	2.817
313.15 K, x1 = 0.0999	769.83	0.679
313.15 K, x1 = 0.2015	785.95	0.795
313.15 K, x1 = 0.3012	800.36	0.942
313.15 K, x1 = 0.4007	813.28	1.102
313.15 K, x1 = 0.4994	824.98	1.268
313.15 K, x1 = 0.5986	835.85	1.474
313.15 K, x1 = 0.7002	846.15	1.708
313.15 K, x1 = 0.7998	855.37	1.953
313.15 K, x1 = 0.8998	863.97	2.227
313.15 K, x1 = 1	872.01	2.54
318.15 K, x1 = 0.0999	765.59	0.641
318.15 K, x1 = 0.2015	781.82	0.747
318.15 K, x1 = 0.3012	796.34	0.882
318.15 K, x1 = 0.4007	809.35	1.025
318.15 K, x1 = 0.4994	821.14	1.177
318.15 K, x1 = 0.5986	832.06	1.37
318.15 K, x1 = 0.7002	842.45	1.582
318.15 K, x1 = 0.7998	851.7	1.788
318.15 K, x1 = 0.8998	860.35	2.032
318.15 K, x1 = 1	868.43	2.302

CCC1CCCCC1 [ethylcyclohexane] + C1CCC(C2CCCCC2)CC1
Settings	mass density [kg/m3]	viscosity [mPa·s]
293.15 K, x2 = 0	788.23	0.851
293.15 K, x2 = 0.1001	801.13	0.996
293.15 K, x2 = 0.2003	813.19	1.164
293.15 K, x2 = 0.3001	824.41	1.369
293.15 K, x2 = 0.4002	835.03	1.621
293.15 K, x2 = 0.498	844.69	1.848
293.15 K, x2 = 0.5996	854.14	2.139
293.15 K, x2 = 0.6996	862.93	2.451
293.15 K, x2 = 0.7983	871.02	2.874
293.15 K, x2 = 0.901	879.05	3.379
298.15 K, x2 = 0	784.2	0.796
298.15 K, x2 = 0.1001	797.17	0.934
298.15 K, x2 = 0.2003	809.29	1.079
298.15 K, x2 = 0.3001	820.56	1.264
298.15 K, x2 = 0.4002	831.23	1.488
298.15 K, x2 = 0.498	840.93	1.685
298.15 K, x2 = 0.5996	850.42	1.94
298.15 K, x2 = 0.6996	859.24	2.21
298.15 K, x2 = 0.7983	867.36	2.574
298.15 K, x2 = 0.901	875.42	3.003
303.15 K, x2 = 0	780.16	0.748
303.15 K, x2 = 0.1001	793.2	0.874
303.15 K, x2 = 0.2003	805.38	1.004
303.15 K, x2 = 0.3001	816.7	1.173
303.15 K, x2 = 0.4002	827.42	1.372
303.15 K, x2 = 0.498	837.16	1.547
303.15 K, x2 = 0.5996	846.72	1.77
303.15 K, x2 = 0.6996	855.55	2.005
303.15 K, x2 = 0.7983	863.7	2.322
303.15 K, x2 = 0.901	871.8	2.689
308.15 K, x2 = 0	776.11	0.704
308.15 K, x2 = 0.1001	789.22	0.82
308.15 K, x2 = 0.2003	801.46	0.938
308.15 K, x2 = 0.3001	812.84	1.091
308.15 K, x2 = 0.4002	823.6	1.258
308.15 K, x2 = 0.498	833.39	1.428
308.15 K, x2 = 0.5996	842.97	1.626
308.15 K, x2 = 0.6996	851.86	1.828
308.15 K, x2 = 0.7983	860.05	2.106
308.15 K, x2 = 0.901	868.18	2.425
313.15 K, x2 = 0	772.04	0.665
313.15 K, x2 = 0.1001	785.22	0.77
313.15 K, x2 = 0.2003	797.53	0.879
313.15 K, x2 = 0.3001	808.96	1.018
313.15 K, x2 = 0.4002	819.79	1.175
313.15 K, x2 = 0.498	829.62	1.32
313.15 K, x2 = 0.5996	839.25	1.492
313.15 K, x2 = 0.6996	848.18	1.675
313.15 K, x2 = 0.7983	856.4	1.92
313.15 K, x2 = 0.901	864.56	2.197
318.15 K, x2 = 0	767.96	0.629
318.15 K, x2 = 0.1001	781.22	0.727
318.15 K, x2 = 0.2003	793.59	0.825
318.15 K, x2 = 0.3001	805.08	0.951
318.15 K, x2 = 0.4002	815.96	1.094
318.15 K, x2 = 0.498	825.85	1.225
318.15 K, x2 = 0.5996	835.52	1.381
318.15 K, x2 = 0.6996	844.5	1.542
318.15 K, x2 = 0.7983	852.76	1.759
318.15 K, x2 = 0.901	860.95	2.002
